This is an account of results in patent US8013016B2, “Use of acetyl L-carnitine for the treatment of fibromyalgic syndrome” (Sigma-Tau Industrie Farmaceutiche Riunite S.p.A., priority 2004, dated 2011).

For experiment [1], the system named is patients with fibromyalgic syndrome. The experiment is described as follows: Same clinical trial: secondary clinical parameters assessed with visual analogue scales. Format: in vivo, human. To be noted: end of the treatment period (10 weeks), 1,500 mg/day; P<0.05. The method, then:
(§1) A multicentre, randomized, placebo-controlled, double-blind clinical trial was conducted, the aim of which was to evaluate the efficacy of acetyl L-carnitine in patients with fibromyalgic syndrome.
Also monitored were additional secondary parameters which will be discussed later.
Acetyl L-carnitine was administered for a period of 10 consecutive weeks at a dose of 1,500 mg/day.
During the first two weeks it was administered at the dose of 500 mg by the intramuscular route (i.m.) and 500 mg (twice daily) by the oral route (os).
Over the following eight weeks acetyl L-carnitine was administered orally at doses of 500 mg three times daily.

Experiment [2] shares this test system. The experiment is described as follows: Multicentre, randomized, placebo-controlled, double-blind clinical trial: evoked pain at ACR tender points (Pressure Threshold Meter algometer). In kind it is in vivo, human. To be noted: for Mean variation compared to baseline (evoked pain at ACR tender points, algometer): N = 42. The protocol: as §1
For the evaluation of the efficacy of the compound according to the present invention evoked pain was monitored (as measured with the “Pressure Threshold Meter” algometer) in the osteoarticular regions indicated by “The American College of Rheumatology” (ACR) as being “tender points” characteristic of fibromyalgia syndrome. [WOLFE F, SMYTHE H A, YUNUS M B, et al. The American College of Rheumatology Criteria for the classification of fibromyalgia: report of the multicenter criteria committee; Arthritis Rheum 1990; 33(2): 160-172].
The patients included in the trial were patients of either gender aged from 25 to 65 years, who matched up to the above-mentioned American College of Rheumatology diagnostic criteria for fibromyalgia syndrome.
The diagnostic criteria for fibromyalgic syndrome had to be confirmed by the presence of all four of the following conditions: • bilateral diffuse pain in the axial skeleton; • bilateral diffuse pain in the upper limbs; • bilateral diffuse pain in the lower limbs; • pain located in 11 or more of the 18 anatomical regions listed in the map of tender points (ACR tender points) evoked with a standardised pressure manoeuvre.
Patients with any one of the following conditions were not recruited into the trial: • presence of infections or inflammatory processes affecting the osteoarticular or tegumental apparatus; • history or presence of clinically important osteoarticular disease capable of confounding the evaluation of the study treatments (e.g. history of trauma); • previous orthopaedic surgery, spondyloarthrosis, connectivitis etc.; • clinical or laboratory evidence of dysthyroidism; • presence of systemic diseases (diabetes, kidney, cardiovascular and respiratory disease, psychiatric illness) or major pathological conditions capable of interfering with the evaluation of the study treatments; • continuous use of anti-inflammatory steroids during the last 3 months prior to the trial; • recent initiation of oestrogen-progestogen hormone replacement therapy (<1 year); • therapy with antidepressant drugs during the last 6 months prior to the trial; • therapy with non-steroidal anti-inflammatory drugs during the last 3 days prior to the trial; • therapy with analgesic drugs during the last 7 days prior to the trial; • participation in a clinical trial during the previous 6 months; • pregnant women, breastfeeding women, or women of childbearing age not adopting an adequate contraceptive method.
Acetyl L-carnitine was administered for a period of 10 consecutive weeks at a dose of 1,500 mg/day. […]

On to `CC(=O)O[C@H](CC(=O)[O-])C[N+](C)(C)C` [Acetyl L-carnitine, acetyl L-carnitine], for which, in experiment [1], the “General well-being (visual analogue scale)” value is recorded as “statistically significant improvements”, the “Mental health (visual analogue scale)” value was “statistically significant improvements” and the “Physical health in general (visual analogue scale)” value is recorded as “statistically significant improvements”. The “Improvement in pain evoked in the osteoarticular regions (ACR tender points) as compared to the control group” value in experiment [2] (end of therapy (10 weeks), 1,500 mg/day, vs placebo) is listed as “statistically significant improvement”. In experiment [2] (visit 2 weeks, 1,500 mg/day (500 mg i.m. + 500 mg twice daily os), placebo 0.16 (0.39)), the “Mean variation compared to baseline (evoked pain at ACR tender points, algometer)” value (shortened to “Mean variation compared to baseline”) was 0.24 (0.64). Also, the “Mean variation compared to baseline” value in experiment [2] (visit 6 weeks, 1,500 mg/day (first 2 weeks i.m. + os, then 500 mg three times daily os), placebo 0.45 (0.57)) is 0.55 (0.64). Besides, in experiment [2] (visit 10 weeks (end of therapy), 1,500 mg/day, placebo 0.34 (0.66), P<0.05 Student's t-test), the “Mean variation compared to baseline” value is recorded as 0.71 (0.71).
